For 3 compounds, MIC results are on record in ChEMBL document CHEMBL1649244, “Horizontal transfer of tetracycline resistance among Chlamydia spp. in vitro” (2009).

What is called MIC is the lowest concentration that inhibits growth of the organism. Read a high MIC as a less susceptible organism.

Type in all cases: functional
The subject of assay [1] is Chlamydia muridarum. The assay can be described thus: Antimicrobial activity against Chlamydia muridarum MoPn/tetR14 harboring tet(C) allele.
Assay [2] concerns Chlamydia trachomatis. In words: Antimicrobial activity against Chlamydia trachomatis J/6276/rifR harboring ompA and rpoB genes.
The test system of assay [3] is Chlamydia trachomatis. In words: Antimicrobial activity against Chlamydia trachomatis L2/oflR-rifR1 harboring ompA and rpoB genes.
Assay [4] has as its system Chlamydia trachomatis. The assay can be described thus: Antimicrobial activity against Chlamydia trachomatis F/70/rifR harboring rpoB gene.
Assay [5] has as its system Chlamydia trachomatis. In words: Antimicrobial activity against Chlamydia trachomatis F/70/rifR-tetR harboring rpoB gene and tet(C) allele.
The subject of assay [6] is Chlamydia suis. The assay can be described thus: Antimicrobial activity against Chlamydia suis S45/rifR harboring rpoB gene.
Assay [7] deals with Chlamydia muridarum. In words: Antimicrobial activity against Chlamydia muridarum MoPn/tetR1 harboring tet(C) allele.
The subject of assay [8] is Chlamydia suis. The assay can be described thus: Antimicrobial activity against Chlamydia suis R19/tetR harboring tet(C) allele.
Assay [9] deals with Chlamydia trachomatis. The assay can be described thus: Antimicrobial activity against Chlamydia trachomatis J/6276/oflR-rifR2 harboring ompA and rpoB genes.
Assay [10] concerns Chlamydia trachomatis. In words: Antimicrobial activity against Chlamydia trachomatis J/6276/tetR harboring tet(C) allele.
Assay [11] concerns Chlamydia muridarum. In words: Antimicrobial activity against Chlamydia muridarum MoPn/rifRoflR harboring ompA and rpoB genes.
Assay [12] relates to Chlamydia muridarum. The assay can be described thus: Antimicrobial activity against Chlamydia muridarum MoPn/oflR-rifR harboring ompA and rpoB genes.
Assay [13] concerns Chlamydia trachomatis. The assay can be described thus: Antimicrobial activity against Chlamydia trachomatis L2/oflR harboring ompA gene.
The test system of assay [14] is Chlamydia trachomatis. In words: Antimicrobial activity against Chlamydia trachomatis L2/tetR1 harboring tet(C) allele.
For assay [15], the system named is Chlamydia muridarum. The assay can be described thus: Antimicrobial activity against Chlamydia muridarum MoPn/oflR harboring ompA gene.
Assay [16] deals with Chlamydia trachomatis. In words: Antimicrobial activity against Chlamydia trachomatis L2/tetR13 harboring tet(C) allele.
The next assay deals with Chlamydophila caviae. In words: Antimicrobial activity against Chlamydophila caviae GPIC/rifR harboring rpoB gene. As to conditions: Chlamydia caviae.
In assay [17] the test system is Chlamydia trachomatis. The assay can be described thus: Antimicrobial activity against Chlamydia trachomatis J/6276/oflR-rifR1 harboring ompA and rpoB genes.
Assay [18] concerns Chlamydia trachomatis. The assay can be described thus: Antimicrobial activity against Chlamydia trachomatis L2/oflR-rifR2 harboring […] and rpoB genes.

In brackets after ≈: the same amount, converted by molar mass.

`CO[C@H]1/C=C/O[C@@]2(C)Oc3c(C)c(O)c4c(O)c(c(/C=N/N5CCN(C)CC5)c(O)c4c3C2=O)NC(=O)/C(C)=C\C=C\[C@H](C)[C@H](O)[C@@H](C)[C@@H](O)[C@@H](C)[C@H](OC(C)=O)[C@@H]1C` [RIFAMPIN]: the MIC in the assay with Chlamydia muridarum [1] stood at 128 µg/mL (≈ 156 µM); against Chlamydia trachomatis [2], 0.004 µg/mL (≈ 0.00486 µM); against Chlamydia trachomatis [3], 128 µg/mL (≈ 156 µM); in the assay with Chlamydia trachomatis [4], 32 µg/mL (≈ 38.9 µM); against Chlamydia trachomatis [5], 32 µg/mL (≈ 38.9 µM); against Chlamydia suis [6], 0.25 µg/mL (≈ 0.304 µM). The minimal inhibitory concentration (MIC) was 0.008 µg/mL (≈ 0.00972 µM) with Chlamydia muridarum [7]; 0.004 µg/mL (≈ 0.00486 µM) in the assay with Chlamydia suis [8]; 8 µg/mL (≈ 9.72 µM) in the assay with Chlamydia trachomatis [9]; 8 µg/mL (≈ 9.72 µM) against Chlamydia trachomatis [10]; 128 µg/mL (≈ 156 µM) in the assay with Chlamydia muridarum [11]; 0.25 µg/mL (≈ 0.304 µM) against Chlamydia muridarum [12]. Moreover, the MIC was 0.004 µg/mL (≈ 0.00486 µM) with Chlamydia trachomatis [13]; 128 µg/mL (≈ 156 µM) in the assay with Chlamydia trachomatis [14]; 0.008 µg/mL (≈ 0.00972 µM) with Chlamydia muridarum [15]; 0.004 µg/mL (≈ 0.00486 µM) in the assay on Chlamydia trachomatis [16]; 16 µg/mL (≈ 19.4 µM) with Chlamydophila caviae; 8 µg/mL (≈ 9.72 µM) in the assay on Chlamydia trachomatis [17]. In the assay on Chlamydia trachomatis [18], this compound showed an MIC of 0.25 µg/mL (≈ 0.304 µM).
For the compound `CC1COc2c(N3CCN(C)CC3)c(F)cc3c(=O)c(C(=O)O)cn1c23` (configuration not stated) [OFLOXACIN], the MIC in the assay with Chlamydia muridarum [1] came to 32 µg/mL (≈ 88.6 µM); with Chlamydia trachomatis [2], 0.5 µg/mL (≈ 1.38 µM); against Chlamydia trachomatis [3], 16 µg/mL (≈ 44.3 µM); in the assay on Chlamydia trachomatis [4], 0.5 µg/mL (≈ 1.38 µM); in the assay on Chlamydia trachomatis [5], 0.5 µg/mL (≈ 1.38 µM); with Chlamydia suis [6] it was 0.5 µg/mL (≈ 1.38 µM). The MIC in the assay on Chlamydia muridarum [7] is 32 µg/mL (≈ 88.6 µM); with Chlamydia suis [8], 0.5 µg/mL (≈ 1.38 µM); against Chlamydia trachomatis [9] it was 32 µg/mL (≈ 88.6 µM); with Chlamydia trachomatis [10], 0.5 µg/mL (≈ 1.38 µM); against Chlamydia muridarum [11], 32 µg/mL (≈ 88.6 µM); in the assay on Chlamydia muridarum [12], 32 µg/mL (≈ 88.6 µM). Besides, the MIC in the assay on Chlamydia trachomatis [13] was determined as 16 µg/mL (≈ 44.3 µM); against Chlamydia trachomatis [14], 16 µg/mL (≈ 44.3 µM); with Chlamydia muridarum [15], 32 µg/mL (≈ 88.6 µM); against Chlamydia trachomatis [16], 16 µg/mL (≈ 44.3 µM); in the assay with Chlamydophila caviae, 0.5 µg/mL (≈ 1.38 µM); in the assay with Chlamydia trachomatis [17] it was 16 µg/mL (≈ 44.3 µM). The same compound yielded an MIC with Chlamydia trachomatis [18] of 16 µg/mL (≈ 44.3 µM).
Regarding `CN(C)[C@@H]1C(O)=C(C(N)=O)C(=O)[C@@]2(O)C(O)=C3C(=O)c4c(O)cccc4[C@@](C)(O)[C@H]3C[C@@H]12` [TETRACYCLINE], the minimum inhibitory concentration (MIC) in the assay with Chlamydia muridarum [1] is 8 µg/mL (≈ 18 µM); in the assay on Chlamydia trachomatis [2], 0.032 µg/mL (≈ 0.072 µM); against Chlamydia trachomatis [3] it was 0.008 µg/mL (≈ 0.018 µM); with Chlamydia trachomatis [4] it was 0.032 µg/mL (≈ 0.072 µM); against Chlamydia trachomatis [5] it was 8 µg/mL (≈ 18 µM); against Chlamydia suis [6] it was 0.032 µg/mL (≈ 0.072 µM). Further, the MIC was 8 µg/mL (≈ 18 µM) in the assay on Chlamydia muridarum [7]; 8 µg/mL (≈ 18 µM) against Chlamydia suis [8]; 0.032 µg/mL (≈ 0.072 µM) against Chlamydia trachomatis [9]; 8 µg/mL (≈ 18 µM) against Chlamydia trachomatis [10]; 0.008 µg/mL (≈ 0.018 µM) in the assay with Chlamydia muridarum [11]; 0.032 µg/mL (≈ 0.072 µM) against Chlamydia muridarum [12]. The MIC turned out to be 0.032 µg/mL (≈ 0.072 µM) in the assay on Chlamydia trachomatis [13]; 8 µg/mL (≈ 18 µM) with Chlamydia trachomatis [14]; 0.032 µg/mL (≈ 0.072 µM) in the assay on Chlamydia muridarum [15]; 8 µg/mL (≈ 18 µM) in the assay with Chlamydia trachomatis [16]; 0.032 µg/mL (≈ 0.072 µM) in the assay with Chlamydophila caviae; 0.032 µg/mL (≈ 0.072 µM) in the assay with Chlamydia trachomatis [17]. Besides, in the assay on Chlamydia trachomatis [18], 0.032 µg/mL (≈ 0.072 µM) was the least that counted as inhibitory (MIC).
